Experimental data taken from patent US20230286970A1, “NOVEL OXADIAZOLE-BASED SELECTIVE HDAC6 INHIBITORS” (ITALFARMACO S.P.A., priority 2020, published 2023).

Tests used:
[1] = target: HDAC3 (Homo sapiens (Human), UniProt O15379); experiment: Enzymatic screening, HDAC3 inhibition; type: biochemical
Procedure: (§1) For each test compound, 100× concentrated DMSO solutions at 8 doses were prepared and then diluted in assay buffer (25 mM Tris-HCl, pH 8, 130 mM NaCl, 0.05% Tween-20, 10% Glycerol) to obtain 5× concentrated solutions in relation to the final concentrations (typical final concentration range—6.4-200000 nM or 0.18-50000 nM, final DMSO content—1%). Then 10 μL solution of each test compound concentration were placed on a 96-well plate in triplicate and 15 μL of 3.33× concentrated enzyme solution in the assay buffer containing 3.33× concentrated BSA (final BSA concentration—2 mg/mL for HDAC4, HDAC5 and HDAC9 or 1 mg/mL for other isoforms) and in the case of HDAC6-3.33× concentrated TCEP (final TCEP concentration—200 μM) were added to each well. After a period of preincubation (incubation times and temperatures vary for different isoforms and are shown in table 1) 25 μL of solution containing the substrate were added. As substrate, FLUOR DE LYS® deacetylase substrate (Enzo Life Sciences, cat: BML-KI104, FdL), FLUOR DE LYS®-Green substrate (Enzo Life Sciences, cat: BML-KI572, FdL_G) or Boc-Lys(Tfa)-AMC (Bachem, cat: 4060676.005, Tfal)—2× concentrated solution in assay buffer were used. Following a reaction period (reaction times and temperatures vary for different isoforms and are reported in Table 1), 50 μL of the development solution consisting of concentrate FLUOR DE LYS® developer I (Enzo Life Sciences, ca: BML-KI105), diluted 200 times in buffer (50 mM Tris-HCl, pH 8, 137 mM NaCl, 2.7 mM KCl, 1 mM MgCl2) plus 2 μM TSA was added and, after 25 minutes at room temperature in the dark, using the Victor 1420 Multilabel Counter Perkin Elmer Wallac instrument, the fluorescence reading was carried out.

[2] = target: HDAC11 (Homo sapiens (Human), UniProt Q96DB2); experiment: Enzymatic screening, HDAC11 inhibition; type: biochemical
Procedure: as §1

[3] = Stability to Phase I metabolism in rat S9 liver fraction; conditions: after 90 minutes, 37° C.
[4] = target: HDAC9 (Homo sapiens (Human), UniProt Q9UKV0); experiment: Enzymatic screening, HDAC9 inhibition; type: biochemical
Chain of HDAC9 (Q9UKV0 whole entry): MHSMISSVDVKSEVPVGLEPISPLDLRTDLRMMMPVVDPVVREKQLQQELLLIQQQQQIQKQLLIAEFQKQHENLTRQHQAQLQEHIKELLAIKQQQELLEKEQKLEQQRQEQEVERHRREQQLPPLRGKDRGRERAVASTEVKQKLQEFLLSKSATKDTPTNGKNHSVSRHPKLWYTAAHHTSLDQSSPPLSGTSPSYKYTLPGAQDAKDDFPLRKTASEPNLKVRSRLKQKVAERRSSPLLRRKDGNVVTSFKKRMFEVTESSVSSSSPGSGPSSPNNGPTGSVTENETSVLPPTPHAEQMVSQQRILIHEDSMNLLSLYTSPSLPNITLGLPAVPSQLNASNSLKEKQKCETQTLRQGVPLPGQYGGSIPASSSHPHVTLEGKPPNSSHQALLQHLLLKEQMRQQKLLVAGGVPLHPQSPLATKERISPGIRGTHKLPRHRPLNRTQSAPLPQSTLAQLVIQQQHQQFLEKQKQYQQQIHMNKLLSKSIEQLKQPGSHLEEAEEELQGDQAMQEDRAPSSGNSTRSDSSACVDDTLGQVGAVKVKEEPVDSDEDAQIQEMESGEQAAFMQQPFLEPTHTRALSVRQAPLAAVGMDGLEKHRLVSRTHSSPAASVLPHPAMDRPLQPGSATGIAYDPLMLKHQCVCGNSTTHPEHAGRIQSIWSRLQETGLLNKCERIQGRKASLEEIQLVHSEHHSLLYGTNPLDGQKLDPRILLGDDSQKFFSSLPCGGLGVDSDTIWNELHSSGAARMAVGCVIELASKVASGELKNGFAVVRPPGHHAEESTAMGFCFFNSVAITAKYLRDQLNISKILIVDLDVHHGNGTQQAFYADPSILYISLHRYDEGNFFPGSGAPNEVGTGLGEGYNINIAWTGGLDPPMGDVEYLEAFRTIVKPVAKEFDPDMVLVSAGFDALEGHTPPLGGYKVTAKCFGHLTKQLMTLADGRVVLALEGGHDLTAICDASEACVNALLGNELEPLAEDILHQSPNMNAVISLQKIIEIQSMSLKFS
Procedure: as §1

[5] = Stability in rat plasma; conditions: after 4 hours, 37° C.
[6] = target: HDAC4 (Homo sapiens (Human), UniProt P56524); experiment: Enzymatic screening, HDAC4 inhibition; type: biochemical
Chain of HDAC4 (P56524 whole entry): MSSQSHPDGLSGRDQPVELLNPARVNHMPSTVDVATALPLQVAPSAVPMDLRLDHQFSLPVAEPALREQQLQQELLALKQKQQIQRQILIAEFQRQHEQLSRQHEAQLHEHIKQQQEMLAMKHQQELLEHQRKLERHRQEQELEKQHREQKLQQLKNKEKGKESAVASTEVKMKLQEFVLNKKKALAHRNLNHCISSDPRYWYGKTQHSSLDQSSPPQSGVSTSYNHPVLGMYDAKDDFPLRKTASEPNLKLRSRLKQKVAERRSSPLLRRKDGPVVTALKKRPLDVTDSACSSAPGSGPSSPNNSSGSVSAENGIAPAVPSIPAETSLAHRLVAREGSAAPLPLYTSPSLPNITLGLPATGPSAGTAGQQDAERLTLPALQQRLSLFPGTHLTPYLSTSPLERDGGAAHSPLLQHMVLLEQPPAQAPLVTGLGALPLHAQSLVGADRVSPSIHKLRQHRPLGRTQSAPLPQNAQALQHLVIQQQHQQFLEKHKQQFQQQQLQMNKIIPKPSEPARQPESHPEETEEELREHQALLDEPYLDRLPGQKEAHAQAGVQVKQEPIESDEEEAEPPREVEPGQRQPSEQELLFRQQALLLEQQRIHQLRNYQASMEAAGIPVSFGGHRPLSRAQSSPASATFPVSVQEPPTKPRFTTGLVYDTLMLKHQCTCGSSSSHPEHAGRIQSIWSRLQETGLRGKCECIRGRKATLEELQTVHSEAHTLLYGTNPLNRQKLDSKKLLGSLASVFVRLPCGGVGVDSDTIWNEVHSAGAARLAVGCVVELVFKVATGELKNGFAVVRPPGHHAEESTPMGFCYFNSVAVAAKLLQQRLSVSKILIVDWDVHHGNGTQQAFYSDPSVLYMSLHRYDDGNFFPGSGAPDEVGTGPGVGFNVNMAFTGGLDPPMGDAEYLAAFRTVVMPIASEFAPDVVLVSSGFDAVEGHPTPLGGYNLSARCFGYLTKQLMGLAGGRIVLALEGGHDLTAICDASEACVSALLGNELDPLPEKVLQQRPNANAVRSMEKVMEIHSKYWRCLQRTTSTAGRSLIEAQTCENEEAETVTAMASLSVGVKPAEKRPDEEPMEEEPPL
Procedure: as §1

[7] = target: HDAC7 (Homo sapiens (Human), UniProt Q8WUI4); experiment: Enzymatic screening, HDAC7 inhibition; type: biochemical
Procedure: as §1

[8] = target: recombinant human HDAC1 (Homo sapiens (Human), UniProt Q13547); experiment: Enzymatic screening, HDAC1 inhibition (fluorogenic FdL_G substrate); type: biochemical
Chain of recombinant human HDAC1 (Q13547 whole entry): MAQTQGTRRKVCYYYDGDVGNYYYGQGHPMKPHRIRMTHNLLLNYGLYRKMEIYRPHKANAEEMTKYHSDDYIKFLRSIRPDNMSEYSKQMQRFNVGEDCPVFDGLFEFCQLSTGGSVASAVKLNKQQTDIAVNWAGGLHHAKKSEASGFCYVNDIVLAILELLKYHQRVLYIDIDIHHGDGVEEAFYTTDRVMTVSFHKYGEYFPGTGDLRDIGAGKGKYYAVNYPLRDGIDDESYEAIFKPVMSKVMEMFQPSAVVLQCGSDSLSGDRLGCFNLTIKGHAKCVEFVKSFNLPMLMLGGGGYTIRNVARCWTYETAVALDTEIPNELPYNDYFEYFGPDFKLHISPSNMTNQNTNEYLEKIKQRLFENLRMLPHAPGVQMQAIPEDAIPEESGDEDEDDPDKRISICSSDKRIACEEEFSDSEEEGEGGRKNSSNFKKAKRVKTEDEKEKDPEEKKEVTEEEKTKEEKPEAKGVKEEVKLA
Outline: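 Recombinant human HDAC1 inhibition was measured fluorometrically using the FLUOR DE LYS-Green (FdL_G) substrate. Compounds at 8 doses (1% DMSO final) in Tris-HCl pH 8 buffer with NaCl, Tween-20 and glycerol were preincubated in triplicate with enzyme and 1 mg/mL BSA, then given substrate. Developer I plus 2 μM TSA was added, and fluorescence read after 25 minutes in the dark.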

[9] = target: HDAC8 (Homo sapiens (Human), UniProt Q9BY41); experiment: Enzymatic screening, HDAC8 inhibition; type: biochemical
Procedure: as §1

[10] = target: HDAC5 (Homo sapiens (Human), UniProt Q9UQL6); experiment: Enzymatic screening, HDAC5 inhibition; type: biochemical
Chain of HDAC5 (Q9UQL6 whole entry): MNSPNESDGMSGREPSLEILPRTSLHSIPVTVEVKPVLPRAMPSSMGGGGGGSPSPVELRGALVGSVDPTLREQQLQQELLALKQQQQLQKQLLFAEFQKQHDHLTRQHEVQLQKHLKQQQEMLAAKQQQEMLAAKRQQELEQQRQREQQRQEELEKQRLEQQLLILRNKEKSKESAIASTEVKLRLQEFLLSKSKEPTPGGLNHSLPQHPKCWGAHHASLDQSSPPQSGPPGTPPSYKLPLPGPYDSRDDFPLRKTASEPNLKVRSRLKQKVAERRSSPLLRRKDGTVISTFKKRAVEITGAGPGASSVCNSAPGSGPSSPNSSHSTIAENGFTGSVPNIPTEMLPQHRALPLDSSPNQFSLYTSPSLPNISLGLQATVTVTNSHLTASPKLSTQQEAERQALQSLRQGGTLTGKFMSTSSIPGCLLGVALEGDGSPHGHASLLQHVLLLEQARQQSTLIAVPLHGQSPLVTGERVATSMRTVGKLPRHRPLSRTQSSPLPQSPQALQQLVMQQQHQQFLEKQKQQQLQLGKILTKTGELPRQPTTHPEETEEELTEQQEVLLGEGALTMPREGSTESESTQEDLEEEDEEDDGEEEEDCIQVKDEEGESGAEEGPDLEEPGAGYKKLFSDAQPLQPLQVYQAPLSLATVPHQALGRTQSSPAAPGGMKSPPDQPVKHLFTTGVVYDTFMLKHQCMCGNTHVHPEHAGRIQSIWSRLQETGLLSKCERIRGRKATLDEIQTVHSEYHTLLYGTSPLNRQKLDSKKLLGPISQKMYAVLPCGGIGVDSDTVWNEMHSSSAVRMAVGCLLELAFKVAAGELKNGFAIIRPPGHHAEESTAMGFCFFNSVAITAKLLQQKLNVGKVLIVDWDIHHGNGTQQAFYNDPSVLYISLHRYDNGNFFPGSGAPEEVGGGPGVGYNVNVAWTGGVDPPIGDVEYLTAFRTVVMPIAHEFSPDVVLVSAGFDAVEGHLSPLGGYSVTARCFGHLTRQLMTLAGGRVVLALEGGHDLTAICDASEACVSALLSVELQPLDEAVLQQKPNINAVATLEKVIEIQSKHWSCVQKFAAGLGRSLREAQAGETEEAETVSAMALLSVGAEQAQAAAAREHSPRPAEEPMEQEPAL
Procedure: as §1

[11] = target: recombinant human HDAC6 (Homo sapiens (Human), UniProt Q9UBN7); experiment: Enzymatic screening, HDAC6 inhibition (fluorogenic FdL_G substrate); type: biochemical
Outline: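 Enzyme was preincubated with compound (8 doses, triplicate, 1% DMSO) in 25 mM Tris-HCl pH 8, 130 mM NaCl, 0.05% Tween-20, 10% glycerol, with BSA. A FLUOR DE LYS-Green substrate was then added, and fluorescence was read after developer plus 2 μM TSA.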

[12] = Stability to Phase I metabolism in human S9 liver fraction; conditions: after 90 minutes, 37° C.
[13] = tested on: α-tubulin acetylation in 697 cell line; experiment: In vitro α-tubulin acetylation in 697 cell line (ELISA); type: cell-based; conditions: 16 hours, read-out: fold increase @ 1 uM TubAc (ratio of acetylated tubulin and total tubulin towards control)
Outline: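 B 697 cells in RPMI 10% FCS were treated for 16 h at 37 °C with compound at 1000, 333, 111 or 37 nM. Lysate (0.3 μg protein) was coated and probed by ELISA for acetylated and total α-tubulin, read at 450 nm. The acetylated/total ratio is given as fold over untreated control.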

[14] = Stability in human plasma; conditions: after 4 hours, 37° C.
Procedure: In order to evaluate the stability to circulating enzymes, test compounds were incubated in human and rat plasma at 37° C. in a thermostated oscillating bath. Each test compound was incubated at μM concentration (50 μM when the samples were analysed by UV/HPLC, 1 or 2 μM when the samples were analysed by LC-MS/MS) for 0, 15, 30 minutes and 1, 2 and 4 hours. The reaction was stopped placing samples on ice bath and adding acidified acetonitrile. After centrifugation (10 minutes at 14000 rpm) an aliquot of the supernatant was diluted with water, filtered with 0.45 μm regenerated cellulose syringe filters and injected in HPLC-UV or in LC-MS/MS. The percentage of the remaining amount at the various incubation times with respect to the initial amount were calculated. The half-life in plasma was also calculated.

[15] = target: HDAC10 (Homo sapiens (Human), UniProt Q969S8); experiment: Enzymatic screening, HDAC10 inhibition; type: biochemical
Chain of HDAC10 (Q969S8 whole entry): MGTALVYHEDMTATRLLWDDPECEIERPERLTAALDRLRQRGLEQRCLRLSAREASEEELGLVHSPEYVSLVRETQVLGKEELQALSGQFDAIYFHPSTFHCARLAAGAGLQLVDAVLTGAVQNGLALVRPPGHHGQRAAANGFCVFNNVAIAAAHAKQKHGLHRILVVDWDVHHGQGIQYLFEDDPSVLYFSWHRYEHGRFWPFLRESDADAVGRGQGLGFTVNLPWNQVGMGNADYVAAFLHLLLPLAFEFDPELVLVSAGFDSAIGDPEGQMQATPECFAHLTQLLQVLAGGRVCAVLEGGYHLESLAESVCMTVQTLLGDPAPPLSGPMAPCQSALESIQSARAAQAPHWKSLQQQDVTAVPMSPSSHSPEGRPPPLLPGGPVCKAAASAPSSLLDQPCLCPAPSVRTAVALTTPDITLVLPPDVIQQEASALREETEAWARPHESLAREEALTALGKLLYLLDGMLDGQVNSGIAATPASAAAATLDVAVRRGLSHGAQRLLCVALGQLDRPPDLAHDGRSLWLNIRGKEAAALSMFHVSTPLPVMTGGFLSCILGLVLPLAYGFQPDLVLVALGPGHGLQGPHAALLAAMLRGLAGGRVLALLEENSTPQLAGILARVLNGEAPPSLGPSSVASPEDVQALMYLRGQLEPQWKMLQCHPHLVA
Procedure: as §1

[16] = target: HDAC2 (Homo sapiens (Human), UniProt Q92769); experiment: Enzymatic screening, HDAC2 inhibition; type: biochemical
Chain of HDAC2 (Q92769 whole entry): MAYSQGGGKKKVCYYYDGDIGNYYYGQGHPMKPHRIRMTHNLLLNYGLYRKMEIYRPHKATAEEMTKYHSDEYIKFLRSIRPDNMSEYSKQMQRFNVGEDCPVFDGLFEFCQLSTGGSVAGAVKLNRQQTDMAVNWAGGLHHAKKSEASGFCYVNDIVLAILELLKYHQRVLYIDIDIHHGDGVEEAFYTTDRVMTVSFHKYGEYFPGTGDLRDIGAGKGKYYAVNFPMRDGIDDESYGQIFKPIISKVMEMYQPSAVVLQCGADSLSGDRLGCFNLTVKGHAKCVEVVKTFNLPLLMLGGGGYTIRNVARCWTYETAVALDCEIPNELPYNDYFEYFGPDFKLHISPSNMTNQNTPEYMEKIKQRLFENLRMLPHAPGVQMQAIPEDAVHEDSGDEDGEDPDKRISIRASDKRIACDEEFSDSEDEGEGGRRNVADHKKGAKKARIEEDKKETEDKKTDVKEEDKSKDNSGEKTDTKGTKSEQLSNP
Procedure: as §1

Nc1ccc(-c2cnn(Cc3ccc(-c4nnc(C(F)F)o4)cn3)c2)cn1 [compound 13, 5-(1-((5-(5-(difluoromethyl)-1,3,4-oxadiazol-2-yl)pyridin-2-yl)methyl)-1H-pyrazol-4-yl)pyridin-2-amine]
IC50 [1]: > 30 µM | IC50 [2]: > 30 µM | residual percentage in RAT S9 FRACTION [3]: 98% | IC50 [4]: > 30 µM | residual percentage in RAT PLASMA [5]: 75% | IC50 [6]: > 30 µM | IC50 [7]: > 30 µM | IC50 [8]: > 200 µM | IC50 [9]: 197 µM | IC50 [10]: > 30 µM | IC50 [11]: 0.023 µM | residual percentage in HUMAN S9 FRACTION [12]: 97% | fold induction at 1 µM [13]: 16 | residual percentage in HUMAN PLASMA [14]: 78% | IC50 [15]: > 30 µM | IC50 [16]: > 30 µM

Cn1c(N)nc2cc(-c3nnn(Cc4ccc(-c5nnc(C(F)F)o5)cc4)n3)ccc21 [compound 11, 5-(2-(4-(5-(difluoromethyl)-1,3,4-oxadiazol-2-yl)benzyl)-2H-tetrazol-5-yl)-1-methyl-1H-benzo[d]imidazol-2-amine]
IC50 [1]: > 30 µM | IC50 [2]: > 30 µM | residual percentage in RAT S9 FRACTION [3]: 90% | IC50 [4]: > 30 µM | residual percentage in RAT PLASMA [5]: 86% | IC50 [6]: > 30 µM | IC50 [7]: > 30 µM | IC50 [8]: > 200 µM | IC50 [9]: > 200 µM | IC50 [10]: > 30 µM | IC50 [11]: 0.019 µM | residual percentage in HUMAN S9 FRACTION [12]: 70% | fold induction at 1 µM [13]: 18 | residual percentage in HUMAN PLASMA [14]: 83% | IC50 [15]: > 30 µM | IC50 [16]: > 30 µM

FC(F)c1nnc(-c2ccc(Cn3cnc(-c4ccc(NC5=NCCN5)cc4)c3)cc2)o1 [compound 22, N-(4-(1-(4-(5-(difluoromethyl)-1,3,4-oxadiazol-2-yl)benzyl)-1H-imidazol-4-yl)phenyl)-4,5-dihydro-1H-imidazol-2-amine]
IC50 [1]: > 30 µM | IC50 [2]: > 30 µM | residual percentage in RAT S9 FRACTION [3]: 98% | IC50 [4]: > 30 µM | residual percentage in RAT PLASMA [5]: 96% | IC50 [6]: > 30 µM | IC50 [7]: > 30 µM | IC50 [8]: > 200 µM | IC50 [9]: > 200 µM | IC50 [10]: > 30 µM | IC50 [11]: 0.017 µM | residual percentage in HUMAN S9 FRACTION [12]: 88% | fold induction at 1 µM [13]: 17 | residual percentage in HUMAN PLASMA [14]: 92% | IC50 [15]: > 30 µM | IC50 [16]: > 30 µM

Nc1ccc(-c2cn(Cc3ccc(-c4nnc(C(F)F)o4)cn3)cn2)cn1 [compound 12, 5-(1-((5-(5-(difluoromethyl)-1,3,4-oxadiazol-2-yl)pyridin-2-yl)methyl)-1H-imidazol-4-yl)pyridin-2-amine]
IC50 [1]: > 30 µM | IC50 [2]: > 30 µM | residual percentage in RAT S9 FRACTION [3]: 98% | IC50 [4]: > 30 µM | residual percentage in RAT PLASMA [5]: 86% | IC50 [6]: > 30 µM | IC50 [7]: > 30 µM | IC50 [8]: > 200 µM | IC50 [9]: > 200 µM | IC50 [10]: > 30 µM | IC50 [11]: 0.02 µM | residual percentage in HUMAN S9 FRACTION [12]: 96% | fold induction at 1 µM [13]: 11 | residual percentage in HUMAN PLASMA [14]: 82% | IC50 [15]: > 30 µM | IC50 [16]: > 30 µM

Cn1c(N)nc2cc(-c3cn(Cc4ccc(-c5nnc(C(F)F)o5)cc4)nn3)ccc21 [Compd. 23, 5-(1-(4-(5-(difluoromethyl)-1,3,4-oxadiazol-2-yl)benzyl)-1H-1,2,3-triazol-4-yl)-1-methyl-1H-benzo[d]imidazol-2-amine]
IC50 [1]: 26.5 µM | IC50 [2]: > 30 µM | residual percentage in RAT S9 FRACTION [3]: 96% | IC50 [4]: > 30 µM | residual percentage in RAT PLASMA [5]: 92% | IC50 [6]: > 30 µM | IC50 [7]: > 30 µM | IC50 [8]: 30.3 µM | IC50 [9]: 0.565 µM | IC50 [10]: > 30 µM | IC50 [11]: 0.013 µM | residual percentage in HUMAN S9 FRACTION [12]: 88% | fold induction at 1 µM [13]: 31 | residual percentage in HUMAN PLASMA [14]: 88% | IC50 [15]: > 30 µM | IC50 [16]: > 30 µM

Nc1ccc(-c2cn(Cc3ccc(-c4nnc(C(F)F)o4)c(F)c3F)nn2)cn1 [compound 21, 5-(1-(4-(5-(difluoromethyl)-1,3,4-oxadiazol-2-yl)-2,3-difluorobenzyl)-1H-1,2,3-triazol-4-yl)pyridin-2-amine]
IC50 [1]: > 30 µM | IC50 [2]: > 30 µM | residual percentage in RAT S9 FRACTION [3]: 90% | IC50 [4]: > 30 µM | residual percentage in RAT PLASMA [5]: 75% | IC50 [6]: > 30 µM | IC50 [7]: > 30 µM | IC50 [8]: > 200 µM | IC50 [9]: > 200 µM | IC50 [10]: > 30 µM | IC50 [11]: 0.017 µM | residual percentage in HUMAN S9 FRACTION [12]: 99% | fold induction at 1 µM [13]: 16 | residual percentage in HUMAN PLASMA [14]: 84% | IC50 [15]: > 30 µM | IC50 [16]: > 30 µM

Nc1nc2ccc(-c3cn(Cc4ccc(-c5nnc(C(F)F)o5)cn4)nn3)cc2s1 [Compd. 1, 6-(1-((5-(5-(difluoromethyl)-1,3,4-oxadiazol-2-yl)pyridin-2-yl)methyl)-1H-1,2,3-triazol-4-yl)benzo[d]thiazol-2-amine]
IC50 [1]: > 30 µM | IC50 [2]: > 30 µM | residual percentage in RAT S9 FRACTION [3]: 96% | IC50 [4]: > 30 µM | residual percentage in RAT PLASMA [5]: 79% | IC50 [6]: > 30 µM | IC50 [7]: > 30 µM | IC50 [8]: > 200 µM | IC50 [9]: > 200 µM | IC50 [10]: > 30 µM | IC50 [11]: 0.007 µM | residual percentage in HUMAN S9 FRACTION [12]: 93% | fold induction at 1 µM [13]: 25 | residual percentage in HUMAN PLASMA [14]: 85% | IC50 [15]: > 30 µM | IC50 [16]: > 30 µM

Nc1nc2cc(-c3cn(Cc4ccc(-c5nnc(C(F)F)o5)cn4)nn3)ccc2s1 [Compd. 3, 5-(1-((5-(5-(difluoromethyl)-1,3,4-oxadiazol-2-yl)pyridin-2-yl)methyl)-1H-1,2,3-triazol-4-yl)benzo[d]thiazol-2-amine]
IC50 [1]: > 30 µM | IC50 [2]: > 30 µM | residual percentage in RAT S9 FRACTION [3]: 90% | IC50 [4]: 22.5 µM | residual percentage in RAT PLASMA [5]: 80% | IC50 [6]: > 30 µM | IC50 [7]: > 30 µM | IC50 [8]: > 200 µM | IC50 [9]: > 200 µM | IC50 [10]: > 30 µM | IC50 [11]: 0.01 µM | residual percentage in HUMAN S9 FRACTION [12]: 97% | fold induction at 1 µM [13]: 13 | residual percentage in HUMAN PLASMA [14]: 70% | IC50 [15]: > 30 µM | IC50 [16]: > 30 µM

FC(F)c1nnc(-c2ccc(Cn3cc(-c4ccc5nc(Cl)[nH]c5c4)nn3)nc2)o1 [Compd. 9, 2-(6-((4-(2-chloro-1H-benzo[d]imidazol-6-yl)-1H-1,2,3-triazol-1-yl)methyl)pyridin-3-yl)-5-(difluoromethyl)-1,3,4-oxadiazole]
IC50 [1]: > 30 µM | IC50 [2]: > 30 µM | residual percentage in RAT S9 FRACTION [3]: 90% | IC50 [4]: 0.971 µM | residual percentage in RAT PLASMA [5]: 87% | IC50 [6]: 5.01 µM | IC50 [7]: 3.08 µM | IC50 [8]: > 200 µM | IC50 [9]: 1.41 µM | IC50 [10]: 1.51 µM | IC50 [11]: 0.015 µM | residual percentage in HUMAN S9 FRACTION [12]: 83% | fold induction at 1 µM [13]: 17 | residual percentage in HUMAN PLASMA [14]: 59% | IC50 [15]: > 30 µM | IC50 [16]: > 30 µM
